Measurements reported in PubChem BioAssay (NCI).
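Values below derive from 48-hour exposures of cells grown in 96-well plates, with endpoints linearly interpolated between the two concentrations bracketing the appropriate inhibition level. Abbreviation: GI50, concentration required for 50% inhibition of growth. Definition used: TGI = concentration required for complete inhibition of growth.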

What was measured:
Test in all cases: growth of human tumour cells (NCI), 48 h
NCI-H460 lung = system: NCI-H460 lung
OVCAR-8 ovarian = system: OVCAR-8 ovarian
SK-MEL-28 melanoma = system: SK-MEL-28 melanoma
DU-145 prostate = system: DU-145 prostate
RPMI-8226 leukemia = system: RPMI-8226 leukemia
NCI-H23 lung = system: NCI-H23 lung
MDA-MB-231 breast = system: MDA-MB-231 breast
SW-620 colon = system: SW-620 colon
SK-MEL-5 melanoma = system: SK-MEL-5 melanoma
LOX IMVI melanoma = system: LOX IMVI melanoma
A549 NSCLC = system: A549 NSCLC
MALME-3M melanoma = system: MALME-3M melanoma
OVCAR-4 ovarian = system: OVCAR-4 ovarian
MDA-MB-435 = system: MDA-MB-435
UO-31 renal = system: UO-31 renal
SK-OV-3 ovarian = system: SK-OV-3 ovarian
UACC-62 melanoma = system: UACC-62 melanoma
SF-295 CNS = system: SF-295 CNS
HS 578T breast = system: HS 578T breast
EKVX NSCLC = system: EKVX NSCLC
SN12C renal = system: SN12C renal
BT-549 breast = system: BT-549 breast
NCI-H522 lung = system: NCI-H522 lung
K-562 leukemia = system: K-562 leukemia
SNB-75 CNS = system: SNB-75 CNS
CAKI-1 renal = system: CAKI-1 renal
HOP-62 NSCLC = system: HOP-62 NSCLC
HT29 colon = system: HT29 colon
COLO 205 colon = system: COLO 205 colon
MCF7 breast = system: MCF7 breast
IGROV1 ovarian = system: IGROV1 ovarian
HCT-116 colon = system: HCT-116 colon
NCI-H226 lung = system: NCI-H226 lung
U251 CNS = system: U251 CNS
A498 renal = system: A498 renal
KM12 colon = system: KM12 colon
OVCAR-5 ovarian = system: OVCAR-5 ovarian
HOP-92 NSCLC = system: HOP-92 NSCLC
M14 melanoma = system: M14 melanoma
MDA-MB-468 breast = system: MDA-MB-468 breast
SNB-19 CNS = system: SNB-19 CNS
786-0 renal = system: 786-0 renal
RXF 393 renal = system: RXF 393 renal
ACHN renal = system: ACHN renal
CCRF-CEM leukemia = system: CCRF-CEM leukemia
TK-10 renal = system: TK-10 renal
T-47D breast = system: T-47D breast
PC-3 prostate = system: PC-3 prostate
HCC-2998 colon = system: HCC-2998 colon
SR leukemia = system: SR leukemia
SF-539 CNS = system: SF-539 CNS
HL-60(TB) leukemia = system: HL-60(TB) leukemia
OVCAR-3 ovarian = system: OVCAR-3 ovarian
SF-268 CNS = system: SF-268 CNS
HCT-15 colon = system: HCT-15 colon
NCI/ADR-RES ovarian = system: NCI/ADR-RES ovarian
MOLT-4 leukemia = system: MOLT-4 leukemia
UACC-257 melanoma = system: UACC-257 melanoma

C[C@@H]1CN(c2ccc3ncc(C#Cc4cncc(C(=O)Nc5ccc(CN6CCN(C)CC6)c(C(F)(F)F)c5)c4)n3n2)C[C@@H](C)O1
GI50 (NCI-H460 lung): 379 nM | TGI (NCI-H460 lung): 1040 nM | GI50 (OVCAR-8 ovarian): 366 nM | TGI (OVCAR-8 ovarian): 1050 nM | GI50 (SK-MEL-28 melanoma): 520 nM | TGI (SK-MEL-28 melanoma): 1230 nM | GI50 (DU-145 prostate): 332 nM | TGI (DU-145 prostate): 923 nM | GI50 (RPMI-8226 leukemia): 507 nM | TGI (RPMI-8226 leukemia): 2030 nM | GI50 (NCI-H23 lung): 268 nM | TGI (NCI-H23 lung): 617 nM | GI50 (MDA-MB-231 breast): 59.5 nM | TGI (MDA-MB-231 breast): 207 nM | GI50 (SW-620 colon): 277 nM | TGI (SW-620 colon): 768 nM | GI50 (SK-MEL-5 melanoma): 673 nM | TGI (SK-MEL-5 melanoma): 1370 nM | GI50 (LOX IMVI melanoma): 222 nM | TGI (LOX IMVI melanoma): 468 nM | GI50 (A549 NSCLC): 340 nM | TGI (A549 NSCLC): 938 nM | GI50 (MALME-3M melanoma): 276 nM | TGI (MALME-3M melanoma): 826 nM | GI50 (OVCAR-4 ovarian): 263 nM | TGI (OVCAR-4 ovarian): 1240 nM | GI50 (MDA-MB-435): 281 nM | TGI (MDA-MB-435): 833 nM | GI50 (UO-31 renal): 128 nM | TGI (UO-31 renal): 462 nM | GI50 (SK-OV-3 ovarian): 510 nM | TGI (SK-OV-3 ovarian): 1570 nM | GI50 (UACC-62 melanoma): 310 nM | TGI (UACC-62 melanoma): 989 nM | GI50 (SF-295 CNS): 332 nM | TGI (SF-295 CNS): 1010 nM | GI50 (HS 578T breast): 166 nM | TGI (HS 578T breast): 794 nM | GI50 (EKVX NSCLC): 227 nM | TGI (EKVX NSCLC): 654 nM | GI50 (SN12C renal): 143 nM | TGI (SN12C renal): 647 nM | GI50 (BT-549 breast): 349 nM | TGI (BT-549 breast): 1200 nM | GI50 (NCI-H522 lung): 261 nM | TGI (NCI-H522 lung): 525 nM | GI50 (K-562 leukemia): 33.6 nM | TGI (K-562 leukemia): 2730 nM | GI50 (SNB-75 CNS): 61.6 nM | TGI (SNB-75 CNS): 188 nM | GI50 (CAKI-1 renal): 1370 nM | TGI (CAKI-1 renal): 3.89 µM | GI50 (HOP-62 NSCLC): 318 nM | TGI (HOP-62 NSCLC): 968 nM | GI50 (HT29 colon): 311 nM | TGI (HT29 colon): 979 nM | GI50 (COLO 205 colon): 316 nM | TGI (COLO 205 colon): 719 nM | GI50 (MCF7 breast): 229 nM | TGI (MCF7 breast): 679 nM | GI50 (IGROV1 ovarian): 276 nM | TGI (IGROV1 ovarian): 772 nM | GI50 (HCT-116 colon): 270 nM | TGI (HCT-116 colon): 790 nM | GI50 (NCI-H226 lung): 87.9 nM | TGI (NCI-H226 lung): 574 nM | GI50 (U251 CNS): 362 nM | TGI (U251 CNS): 1010 nM | GI50 (A498 renal): 678 nM | TGI (A498 renal): 1370 nM | GI50 (KM12 colon): 11.4 nM | TGI (KM12 colon): 534 nM | GI50 (OVCAR-5 ovarian): 363 nM | TGI (OVCAR-5 ovarian): 922 nM | GI50 (HOP-92 NSCLC): 124 nM | TGI (HOP-92 NSCLC): 496 nM | GI50 (M14 melanoma): 280 nM | TGI (M14 melanoma): 771 nM | GI50 (MDA-MB-468 breast): 216 nM | TGI (MDA-MB-468 breast): 452 nM | GI50 (SNB-19 CNS): 467 nM | TGI (SNB-19 CNS): 1260 nM | GI50 (786-0 renal): 407 nM | TGI (786-0 renal): 986 nM | GI50 (RXF 393 renal): 187 nM | TGI (RXF 393 renal): 432 nM | GI50 (ACHN renal): 242 nM | TGI (ACHN renal): 680 nM | GI50 (CCRF-CEM leukemia): 475 nM | TGI (CCRF-CEM leukemia): 1530 nM | GI50 (TK-10 renal): 299 nM | TGI (TK-10 renal): 727 nM | GI50 (T-47D breast): 754 nM | TGI (T-47D breast): 2220 nM | GI50 (PC-3 prostate): 507 nM | TGI (PC-3 prostate): 1810 nM | GI50 (HCC-2998 colon): 426 nM | TGI (HCC-2998 colon): 1010 nM | GI50 (SR leukemia): 499 nM | TGI (SR leukemia): 10.3 µM | GI50 (SF-539 CNS): 142 nM | TGI (SF-539 CNS): 382 nM | GI50 (HL-60(TB) leukemia): 421 nM | TGI (HL-60(TB) leukemia): 1170 nM | GI50 (OVCAR-3 ovarian): 328 nM | TGI (OVCAR-3 ovarian): 1130 nM | GI50 (SF-268 CNS): 299 nM | TGI (SF-268 CNS): 1130 nM | GI50 (HCT-15 colon): 286 nM | TGI (HCT-15 colon): 632 nM | GI50 (NCI/ADR-RES ovarian): 899 nM | TGI (NCI/ADR-RES ovarian): 1850 nM | GI50 (MOLT-4 leukemia): 297 nM | TGI (MOLT-4 leukemia): 4.09 µM | GI50 (UACC-257 melanoma): 737 nM | TGI (UACC-257 melanoma): 3.51 µM
